Patent US20100204265A1 (priority 2009, published 2010)
pEC50: −log10 of the molar value.

These compounds were tested on ET (Huh-lucubineo-ET) cell line harboring I389luc-ubi-neo/NS3-3′/ET HCV replicon (assay: Replicon assay (HCV replicon, luciferase readout)). Conditions: Hepatitis C virus.
Type: cell-based
In short: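 Compounds at 10-point 2-fold dilutions (overall 0.1 nM to […], 0.5% DMSO) were applied to ET cells carrying a luciferase-neo HCV replicon, seeded a day earlier. After 48-72 hours, luciferase-based % inhibition was fitted with a Hill equation for EC50, and parallel WST-1 readings gave TC50.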

Structure (SMILES) | pEC50
COC(=O)C(NC(=O)Cc1cn2cc(-c3ccoc3)cc(C(F)(F)F)c2n1)C(C)O (centres unmarked) [Compound 305, 2-[2-(6-Furan-3-yl-8-trifluoromethyl-imidazo[1,2-a]pyridin-2-yl)-acetylamino]-3-hydroxy-butyric acid methyl ester] | < 4.30
O=C(c1nc2c(C(F)(F)F)cc(-c3ccoc3)cn2c1Cl)N1CC=C(C2=CCNC2)CC1 [Compound 213, (3-Chloro-6-furan-3-yl-8-trifluoromethyl-imidazo[1,2-a]pyridin-2-yl)-[4-(2,5-dihydro-1H-pyrrol-3-yl)-3,6-dihydro-2H-pyridin-1-yl]-methanone] | 6.03
O=C(c1nc2c(C(F)(F)F)cc(Br)cn2c1Cl)N1CC=C(c2ncccc2F)CC1 [Compound 125, (6-Bromo-3-chloro-8-trifluoromethyl-imidazo[1,2-a]pyridin-2-yl)-(3-fluoro-3′,6′-dihydro-2′H-[2,4′]bipyridinyl-1′-yl)-methanone] | 7.53
CSCCC(NC(=O)c1cn2cc(-c3ccoc3)cc(C(F)(F)F)c2n1)C(=O)O (centres unmarked) [Compound 266, 2-[(6-Furan-3-yl-8-trifluoromethyl-imidazo[1,2-a]pyridine-2-carbonyl)-amino]-4-methylsulfanyl-butyric acid] | < 4.30
COc1ccc(NC2CCN(C(=O)c3nc4c(C(F)(F)F)cc(-c5ccoc5)cn4c3Cl)C2)cc1 (centres unmarked) [Compound 180, (3-Chloro-6-furan-3-yl-8-trifluoromethyl-imidazo[1,2-a]pyridin-2-yl)-[3-(4-methoxy-phenylamino)-pyrrolidin-1-yl]-methanone] | 4.92
O=C(O)CCNC(=O)c1cn2cc(-c3ccoc3)cc(C(F)(F)F)c2n1 [Compound 285, 3-[(6-Furan-3-yl-8-trifluoromethyl-imidazo[1,2-a]pyridine-2-carbonyl)-amino]-propionic acid] | < 4.30
CC(=O)N[C@H](C(=O)NCc1cn2cc(-c3ccoc3)cc(C(F)(F)F)c2n1)C(C)C [Compound 288, 2-Acetylamino-N-(6-furan-3-yl-8-trifluoromethyl-imidazo[1,2-a]pyridin-2-ylmethyl)-3-methyl-butyramide] | < 4.30
O=C(c1cc2c(C(F)(F)F)cc(-c3cccs3)nc2[nH]1)N1CC=C(c2ncccc2F)CC1 [Compound 116, (3-Fluoro-3′,6′-dihydro-2′H-[2,4′]bipyridinyl-1′-yl)-(6-thiophen-2-yl-4-trifluoromethyl-1H-pyrrolo[2,3-b]pyridin-2-yl)-methanone] | 4.61
O=C(Cc1cn2cc(-c3ccoc3)cc(C(F)(F)F)c2n1)NS(=O)(=O)c1cccs1 [Compound 189, Thiophene-2-sulfonic acid [2-(6-furan-3-yl-8-trifluoromethyl-imidazo[1,2-a]pyridin-2-yl)-acetyl]-amide] | < 4.30
O=C(c1nc2c(C(F)(F)F)cc(-c3cn[nH]c3)cn2c1Cl)N1CC=C(c2ccsc2)C1 [Compound 132, [3-Chloro-6-(1H-pyrazol-4-yl)-8-trifluoromethyl-imidazo[1,2-a]pyridin-2-yl]-(3-thiophen-3-yl-2,5-dihydro-pyrrol-1-yl)-methanone] | 6.97
O=C(c1nc2c(C(F)(F)F)cc(-c3ccoc3)cn2c1Cl)N1CC=C(C#CC2CCCC2)CC1 [Compound 200, (3-Chloro-6-furan-3-yl-8-trifluoromethyl-imidazo[1,2-a]pyridin-2-yl)-(4-cyclopentylethynyl-3,6-dihydro-2H-pyridin-1-yl)-methanone] | < 4.30
O=C(N[C@@H]1CCN(C(=O)c2nc3c(C(F)(F)F)cc(-c4ccoc4)cn3c2Cl)C1)OCCCl (stereo in doubt) [Compound 321, [1-(3-Chloro-6-furan-3-yl-8-trifluoromethyl-imidazo[1,2-a]pyridine-2-carbonyl)-pyrrolidin-3-yl]-carbamic acid 2-chloro-ethyl ester] | < 4.30
N#CC1(c2cccs2)CCN(C(=O)c2nc3c(C(F)(F)F)cc(-c4ccoc4)cn3c2Cl)CC1 [Compound 221, 1-(3-Chloro-6-furan-3-yl-8-trifluoromethyl-imidazo[1,2-a]pyridine-2-carbonyl)-4-thiophen-2-yl-piperidine-4-carbonitrile] | 7.34
O=C(c1nc2c(C(F)(F)F)cc(-c3ccoc3)cn2c1Cl)N1CC=C(c2cncs2)C1 [Compound 106, (3-Chloro-6-furan-3-yl-8-trifluoromethyl-imidazo[1,2-a]pyridin-2-yl)-(3-thiazol-5-yl-2,5-dihydro-pyrrol-1-yl)-methanone] | 7.05
NC(=O)C1CCCN1C(=O)c1nc2c(C(F)(F)F)cc(-c3ccoc3)cn2c1Cl (centres unmarked) [Compound 237, 1-(3-Chloro-6-furan-3-yl-8-trifluoromethyl-imidazo[1,2-a]pyridine-2-carbonyl)-pyrrolidine-2-carboxylic acid amide] | < 4.30
CS(=O)(=O)NC1CN(C(=O)c2cn3cc(-c4coc(Br)c4)cc(C(F)(F)F)c3n2)C1 [Compound 145, N-{1-[6-(5-Bromo-furan-3-yl)-8-trifluoromethyl-imidazo[1,2-a]pyridine-2-carbonyl]-azetidin-3-yl}-methanesulfonamide] | 5.46

Structure (SMILES) | pEC50
O=C(c1nc2c(C(F)(F)F)cc(-c3ccoc3)cn2c1CO)N1CC=C(c2nccs2)C1 [Compound 170, (6-Furan-3-yl-3-hydroxymethyl-8-trifluoromethyl-imidazo[1,2-a]pyridin-2-yl)-(3-thiazol-2-yl-2,5-dihydro-pyrrol-1-yl) methanone] | 7.59
O=C(c1nc2c(C(F)(F)F)cc(-c3ccoc3)cn2c1Cl)N1CC=C(c2ccccn2)CC1 [Compound 210, (3-Chloro-6-furan-3-yl-8-trifluoromethyl-imidazo[1,2-a]pyridin-2-yl)-(3′,6′-dihydro-2′H-[2,4′]bipyridinyl-1′-yl)-methanone] | 6.32
O=C(c1nc2c(C(F)(F)F)cc(-c3ccoc3)cn2c1Cl)N1CC=C(c2ncccc2O)CC1 [Compound 201, (3-Chloro-6-furan-3-yl-8-trifluoromethyl-imidazo[1,2-a]pyridin-2-yl)-(3-hydroxy-3′,6′-dihydro-2′H-[2,4′]bipyridinyl-1′-yl)-methanone] | 4.82
COC(=O)C(C)NC(=O)Cc1cn2cc(-c3ccoc3)cc(C(F)(F)F)c2n1 (centres unmarked) [Compound 304, 2-[2-(6-Furan-3-yl-8-trifluoromethyl-imidazo[1,2-a]pyridin-2-yl)-acetylamino]-propionic acid methyl ester] | < 4.30
CC(NC(=O)c1cn2cc(-c3ccoc3)cc(C(F)(F)F)c2n1)C(N)=O (centres unmarked) [Compound 277, 6-Furan-3-yl-8-trifluoromethyl-imidazo[1,2-a]pyridine-2-carboxylic acid (1-carbamoyl-ethyl)-amide] | < 4.30
CC(=O)NC(CO)C(=O)NCc1cn2cc(-c3ccoc3)cc(C(F)(F)F)c2n1 (centres unmarked) [Compound 259, 2-Acetylamino-N-(6-furan-3-yl-8-trifluoromethyl-imidazo[1,2-a]pyridin-2-ylmethyl)-3-hydroxy-propionamide] | < 4.30
CC(C)CCOC1CCN(C(=O)c2nc3c(C(F)(F)F)cc(-c4ccoc4)cn3c2Cl)CC1 [Compound 158, (3-Chloro-6-furan-3-yl-8-trifluoromethyl-imidazo[1,2-a]pyridin-2-yl)-[4-(3-methyl-butoxy)-piperidin-1-yl]-methanone] | 5.09
COc1cccc(NC2CCN(C(=O)c3nc4c(C(F)(F)F)cc(-c5ccoc5)cn4c3Cl)C2)c1 (centres unmarked) [Compound 178, (3-Chloro-6-furan-3-yl-8-trifluoromethyl-imidazo[1,2-a]pyridin-2-yl)-[3-(3-methoxy-phenylamino)-pyrrolidin-1-yl]-methanone] | 5.62
O=C(c1nc2c(C(F)(F)F)cc(-c3cn[nH]c3)cn2c1CO)N1CC=C(c2nccs2)C1 [Compound 173, [3-Hydroxymethyl-6-(1H-pyrazol-4-yl)-8-trifluoromethyl-imidazo[1,2-a]pyridin-2-yl]-(3-thiazol-2-yl-2,5-dihydro-pyrrol-1-yl)-methanone] | 6.35
O=C(c1nc2c(C(F)(F)F)cc(-c3cn[nH]c3)cn2c1Cl)N1CCC(Nc2ccccc2)C1 (centres unmarked) [Compound 179, [3-Chloro-6-(1H-pyrazol-4-yl)-8-trifluoromethyl-imidazo[1,2-a]pyridin-2-yl]-(3-phenylamino-pyrrolidin-1-yl)-methanone] | 4.99
COC(=O)C(Cc1c[nH]c2ccccc12)NC(=O)Cc1cn2cc(-c3ccoc3)cc(C(F)(F)F)c2n1 (centres unmarked) [Compound 311, 2-[2-(6-Furan-3-yl-8-trifluoromethyl-imidazol[1,2-a]pyridin-2-yl)-acetylamino]-3-(1H-indol-3-yl)-propionic acid methyl ester] | < 4.30
CC(C)[C@H](NC(=O)Cc1cn2cc(-c3ccoc3)cc(C(F)(F)F)c2n1)C(N)=O [Compound 297, 2-[2-(6-Furan-3-yl-8-trifluoromethyl-imidazol[1,2-a]pyridin-2-yl)-acetylamino]-3-methyl-butyramide] | < 4.30
O=C(Cc1cn2cc(-c3ccoc3)cc(C(F)(F)F)c2n1)N1CCC(c2cccs2)C1 (centres unmarked) [Compound 187, 2-(6-Furan-3-yl-8-trifluoromethyl-imidazo[1,2-a]pyridin-2-yl)-1-(3-thiophen-2-yl-pyrrolidin-1-yl)-ethanone] | 5.70
CNC(=O)CNC(=O)c1cn2cc(-c3ccoc3)cc(C(F)(F)F)c2n1 [Compound 248, 6-Furan-3-yl-8-trifluoromethyl-imidazo[1,2-a]pyridine-2-carboxylic acid methylcarbamoylmethyl-amide] | < 4.30
FC(F)(F)c1cc(-c2ccoc2)cn2cc(CN3CC=C(c4nccs4)C3)nc12 [Compound 163, 6-Furan-3-yl-2-(3-thiazol-2-yl-2,5-dihydro-pyrrol-1-ylmethyl)-8-trifluoromethyl-imidazo[1,2-a]pyridine] | 4.37
O=C(c1nc2c(C(F)(F)F)cc(-c3cncs3)cn2c1Cl)N1CC=C(c2ncccc2F)CC1 [Compound 119, (3-Chloro-6-thiazol-5-yl-8-trifluoromethyl-imidazo[1,2-a]pyridin-2-yl)-(3-fluoro-3′,6′-dihydro-2′H-[2,4′]bipyridinyl-1′-yl)-methanone] | 6.45
